Experimental data from ChEMBL document CHEMBL3745617 (J Med Chem, 2015).

How the values were obtained:
[1] = Cytotoxicity against mouse BAF3 cells assessed as cell proliferation after 72 hrs by CelltiterGlo assay; assay type: cell-based
MV4-11 = assay: Antiproliferative activity against human MV4-11 cells after 72 hrs by CelltiterGlo assay; assay type: functional; details: MV4-11, 72 h
[2] = tested on: Receptor-type tyrosine-protein kinase FLT3 (Homo sapiens), P36888 [UNDEFINED MUTATION]; assay: Inhibition of FLT3 ITD mutant (unknown origin) expressed in BaF3 cells assessed as inhibition of cell proliferation after 72 hrs by CelltiterGlo assay; assay type: cell-based
Receptor-type tyrosine-protein kinase FLT3 (Homo sapiens), P36888 [UNDEFINED MUTATION], sequence (P36888 whole entry, looked up, change not shown): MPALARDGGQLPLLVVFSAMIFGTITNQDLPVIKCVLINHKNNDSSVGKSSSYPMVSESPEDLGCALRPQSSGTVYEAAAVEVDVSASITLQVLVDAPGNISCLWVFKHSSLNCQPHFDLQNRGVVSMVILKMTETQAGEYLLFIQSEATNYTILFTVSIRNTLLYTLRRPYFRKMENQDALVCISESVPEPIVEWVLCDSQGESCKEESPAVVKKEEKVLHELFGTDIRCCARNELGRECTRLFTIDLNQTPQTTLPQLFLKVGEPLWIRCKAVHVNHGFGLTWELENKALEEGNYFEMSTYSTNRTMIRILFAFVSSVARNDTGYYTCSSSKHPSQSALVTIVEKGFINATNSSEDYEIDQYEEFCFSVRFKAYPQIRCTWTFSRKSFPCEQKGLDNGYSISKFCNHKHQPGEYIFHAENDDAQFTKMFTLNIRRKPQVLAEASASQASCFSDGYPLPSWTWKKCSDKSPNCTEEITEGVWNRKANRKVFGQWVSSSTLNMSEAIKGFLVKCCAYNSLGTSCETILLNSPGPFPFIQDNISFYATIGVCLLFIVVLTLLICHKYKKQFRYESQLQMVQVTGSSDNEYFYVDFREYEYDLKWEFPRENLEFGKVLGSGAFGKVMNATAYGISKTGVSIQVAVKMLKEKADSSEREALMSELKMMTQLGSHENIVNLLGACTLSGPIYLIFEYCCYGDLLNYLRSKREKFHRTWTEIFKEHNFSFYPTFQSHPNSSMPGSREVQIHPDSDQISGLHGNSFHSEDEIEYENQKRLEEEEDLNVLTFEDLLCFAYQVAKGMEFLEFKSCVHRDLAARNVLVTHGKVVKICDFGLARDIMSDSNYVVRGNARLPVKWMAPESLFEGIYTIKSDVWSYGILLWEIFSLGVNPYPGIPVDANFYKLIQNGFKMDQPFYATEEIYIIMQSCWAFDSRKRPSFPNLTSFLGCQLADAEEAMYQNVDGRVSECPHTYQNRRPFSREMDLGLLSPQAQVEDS

SMILES | GI50 at 72 h [1] [nM] | GI50 (MV4-11) [nM] | GI50 [2] [nM]
CN(C)CC(=O)N1CCC[C@H](n2nc(-c3ccc(Oc4ccccc4)cc3)c3c(N)ncnc32)C1 | 5800 | 280 | 120
CN(C)CC(=O)N1CC[C@@H](n2nc(-c3ccc(Oc4ccccc4)cc3)c3c(N)ncnc32)C1 | 8420 | 83 | 41
C=CC(=O)N1CCC[C@@H](n2nc(-c3ccc(Oc4ccccc4)cc3)c3c(N)ncnc32)C1 [IBRUTINIB] | > 10000 | – | 120
Nc1ncnc2c1c(-c1ccc(Oc3ccccc3)cc1)nn2[C@@H]1CCCN(C(=O)[C@H](N)CO)C1 | 6500 | 61 | 46
CCCS(=O)(=O)N1CCC[C@@H](n2nc(-c3ccc(Oc4ccccc4)cc3)c3c(N)ncnc32)C1 | 8600 | 760 | 160
CC[C@@H](C)[C@@H](N)C(=O)N1CCC[C@@H](n2nc(-c3ccc(Oc4ccccc4)cc3)c3c(N)ncnc32)C1 | 1700 | 120 | 88
CC(C)C[C@@H](N)C(=O)N1CCC[C@@H](n2nc(-c3ccc(Oc4ccccc4)cc3)c3c(N)ncnc32)C1 | 1300 | 32 | 5
CS(=O)(=O)N1CC[C@@H](n2nc(-c3ccc(Oc4ccccc4)cc3)c3c(N)ncnc32)C1 | > 10000 | 420 | 130
CCC(=O)N1CCC[C@@H](n2nc(-c3ccc(Oc4ccccc4)cc3)c3c(N)ncnc32)C1 | 3800 | 130 | 28
CCCC(=O)N1CCC[C@@H](n2nc(-c3ccc(Oc4ccccc4)cc3)c3c(N)ncnc32)C1 | > 10000 | 1200 | 450
CC(C)C[C@@H](N)C(=O)N1CC[C@@H](n2nc(-c3ccc(Oc4ccccc4)cc3)c3c(N)ncnc32)C1 | 2150 | 120 | 41
CC(C)(C)C(=O)N1CCC[C@@H](n2nc(-c3ccc(Oc4ccccc4)cc3)c3c(N)ncnc32)C1 | > 10000 | > 10000 | 1800
CC(=O)N1CCC[C@@H](n2nc(-c3ccc(Oc4ccccc4)cc3)c3c(N)ncnc32)C1 | 5500 | 350 | 70
Nc1ncnc2c1c(-c1ccc(Oc3ccccc3)cc1)nn2[C@@H]1CCCN(C(=O)CC2CC2)C1 | 3600 | 410 | 82
CC(C)C[C@@H](N)C(=O)N1CCC(n2nc(-c3ccc(Oc4ccccc4)cc3)c3c(N)ncnc32)CC1 | 590 | 210 | 75
C[C@@H](N)C(=O)N1CCC[C@@H](n2nc(-c3ccc(Oc4ccccc4)cc3)c3c(N)ncnc32)C1 | 3800 | 54 | 22

SMILES | GI50 at 72 h [1] [nM] | GI50 (MV4-11) [nM] | GI50 [2] [nM]
NCC(=O)N1CC[C@@H](n2nc(-c3ccc(Oc4ccccc4)cc3)c3c(N)ncnc32)C1 | 7590 | 180 | 80
CC(C)[C@@H](N)C(=O)N1CCC[C@@H](n2nc(-c3ccc(Oc4ccccc4)cc3)c3c(N)ncnc32)C1 | 1400 | 27 | 17
C=CC(=O)N1CCC[C@@H](n2nc(-c3ccc(/C=C/c4ccccc4)cc3)c3c(N)ncnc32)C1 | > 10000 | > 10000 | 1800
CCS(=O)(=O)N1CCC[C@@H](n2nc(-c3ccc(Oc4ccccc4)cc3)c3c(N)ncnc32)C1 | 4000 | 570 | 140
Nc1ncnc2c1c(-c1ccc(Oc3ccccc3)cc1)nn2[C@@H]1CCCN(C(=O)C2CC2)C1 | > 10000 | 6500 | 1400
CC(O)[C@@H](N)C(=O)N1CCC[C@@H](n2nc(-c3ccc(Oc4ccccc4)cc3)c3c(N)ncnc32)C1 (some centres not stated) | 3900 | 64 | 22
CS(=O)(=O)N1CCC(n2nc(-c3ccc(Oc4ccccc4)cc3)c3c(N)ncnc32)CC1 | > 10000 | 630 | 190
CN1CCN(CC(=O)N2CCC[C@@H](n3nc(-c4ccc(Oc5ccccc5)cc4)c4c(N)ncnc43)C2)CC1 | 2300 | 230 | 93
CC(C)(C)CC(=O)N1CCC[C@@H](n2nc(-c3ccc(Oc4ccccc4)cc3)c3c(N)ncnc32)C1 | 4600 | 2400 | 460
CN(C)CC(=O)N1CCC(n2nc(-c3ccc(Oc4ccccc4)cc3)c3c(N)ncnc32)CC1 | 3650 | 110 | 75
CS(=O)(=O)N1CCC[C@@H](n2nc(-c3ccc(Oc4ccccc4)cc3)c3c(N)ncnc32)C1 | > 10000 | 170 | 48
CN1CCC(C(=O)N2CCC[C@@H](n3nc(-c4ccc(Oc5ccccc5)cc4)c4c(N)ncnc43)C2)CC1 | 5000 | 160 | 77
CCC(C)(C)C(=O)N1CCC[C@@H](n2nc(-c3ccc(Oc4ccccc4)cc3)c3c(N)ncnc32)C1 | 4500 | 2400 | 260
NCC(=O)N1CCC[C@@H](n2nc(-c3ccc(Oc4ccccc4)cc3)c3c(N)ncnc32)C1 | 3800 | 22 | 7
NCCC(=O)N1CCC[C@@H](n2nc(-c3ccc(Oc4ccccc4)cc3)c3c(N)ncnc32)C1 | > 10000 | 750 | 390
